Reference: the supplement of paper PMC5908809

Key:
Test in all cases: relative IC50 (inflection point of fitted viability curve, relative to fitted max inhibition); higher = less sensitive
Settings in all cases: 72 h
[1] = system: DERL-7 (IL-2 2.5 ng/mL)
Protocol: (§1)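 Drug sensitivity and resistance testing: 5 concentrations over a 10,000-fold range, 72 h at 37 °C, viability by CellTiter-Glo normalised to DMSO and benzethonium chloride controls. IC50 is the inflection point of a logistic fit (min fixed at 0, max fitted), so it is relative to the fitted maximal inhibition. Kept only where fitted max inhibition is at least 50%.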

[2] = system: IMC-1 (IL-2 20 ng/mL)
Protocol: as §1

[3] = system: KAI3 (IL-2 2.5 ng/mL)
Protocol: as §1

[4] = system: KHYG-1 (IL-2 2.5 ng/mL)
Protocol: as §1

[5] = system: NK-92 (IL-2 2.5 ng/mL)
Protocol: as §1

[6] = system: NK-YS (IL-2 2.5 ng/mL)
Protocol: as §1

[7] = system: NKL (IL-2 2.5 ng/mL)
Protocol: as §1

[8] = system: SNK-6 (IL-2 2.5 ng/mL)
Protocol: as §1

[9] = system: YT (IL-2 2.5 ng/mL)
Protocol: as §1

[10] = system: normal primary NK cells, pool 1 (3 donors) (IL-2 2.5 ng/mL)
Protocol: as §1

[11] = system: normal primary NK cells, pool 1 (3 donors), resting (IL-2 0 ng/mL)
Protocol: as §1

[12] = system: normal primary NK cells, pool 2 (3 donors) (IL-2 2.5 ng/mL)
Protocol: as §1

[13] = system: normal primary NK cells, pool 3 (3 donors) (IL-2 2.5 ng/mL)
Protocol: as §1

Row | SMILES | relative IC50 [1] [nM] | relative IC50 [2] [nM] | relative IC50 [3] [nM] | relative IC50 [4] [nM] | relative IC50 [5] [nM] | relative IC50 [6] [nM] | relative IC50 [7] [nM] | relative IC50 [8] [nM] | relative IC50 [9] [nM] | relative IC50 [10] [nM] | relative IC50 [11] [nM] | relative IC50 [12] [nM] | relative IC50 [13] [nM]
1 | CO[C@H](C(=O)[C@@H](O)[C@@H](C)O)[C@@H]1Cc2cc3cc(O[C@H]4C[C@@H](O[C@@H]5C[C@@H](O)[C@H](O)[C@@H](C)O5)[C@H](O)[C@@H](C)O4)c(C)c(O)c3c(O)c2C(=O)[C@H]1O[C@H]1C[C@@H](O[C@@H]2C[C@@H](O)[C@@H](O[C@@H]3C[C@](C)(O)[C@H](O)[C@@H](C)O3)[C@@H](C)O2)[C@H](O)[C@@H](C)O1 [Plicamycin] | 48.2 | 730 | 84.1 | 44.7 | 220 | 27.7 | 37.9 | 11.7 | 31.6 | 136 | 135 | 692 | 785
2 | Cc1ccc(C(=O)Nc2ccc(CN3CCN(C)CC3)c(C(F)(F)F)c2)cc1C#Cc1cnc2cccnn12 [Ponatinib] | 156 | > 1000 | 213 | 270 | 425 | – | 96.1 | – | 121 | 240 | 55.3 | 335 | 415
3 | O=C(O)CCCc1ccc(N(CCCl)CCCl)cc1 [Chlorambucil] | – | – | 1620 | 3160 | 3200 | 1930 | 1410 | 2210 | – | 2830 | 1660 | 2960 | 3180
4 | CN[C@@H](C)C(=O)N[C@H](C(=O)N1CCC[C@H]1c1nc(C(=O)c2ccc(F)cc2)cs1)C1CCCCC1 [LCL161] | 1390 | – | 2940 | 251 | 2900 | – | – | – | – | 1040 | 2520 | 772 | 932
5 | CCCc1cc(C)[nH]c(=O)c1CNC(=O)c1cc(-c2ccnc(N3CCN(C)CC3)c2)cc2c1cnn2C(C)C [GSK343] | 2420 | 3630 | 2480 | 2880 | 3190 | 2780 | 3350 | 3520 | 2890 | 2470 | 2240 | > 10000 | 3690
6 | CCCCCCCCc1ccc(CCC(N)(CO)CO)cc1 [Fingolimod] | 2030 | 2310 | 1670 | 2290 | 3260 | 2280 | 1400 | 2060 | 2450 | 2450 | 3330 | 1930 | 3410
7 | C[C@@H]1CN(CC(=O)Nc2ccc3c(c2)Cc2cccc(-c4cc(=O)cc(N5CCOCC5)o4)c2S3)C[C@H](C)O1 | 4940 | 7360 | 4210 | 4430 | 4490 | 5880 | 3200 | 6050 | 6110 | 5660 | 3480 | 5660 | 8100
8 | Nc1nc(Nc2ccc3c(c2)CC[C@@H](N2CCCC2)CC3)nn1-c1cc2c(nn1)-c1ccccc1CCC2 [BGB324] | 508 | 3400 | 1110 | 836 | 1020 | 2020 | 533 | 1290 | 2250 | 766 | 437 | 1070 | 1620
